Measured values reported in PMC5218480 (PLoS ONE, 2017).

System: MV-4-11 cells
Experiment: Gene expression microarray analysis (Affymetrix PrimeView) and GSEA
Assay type: cell-based, human
Parameters: RFU PODN (11730768_x_at) / Fold change /veh PODN (11730768_x_at) / RFU LINC00158 (11744669_a_at) / Fold change /veh LINC00158 (11744669_a_at) / RFU DUSP10 (11751237_a_at) / Fold change /veh DUSP10 (11751237_a_at) / RFU ID3 (11757404_x_at) / Fold change /veh ID3 (11757404_x_at) / RFU PLEKHG5 (11737974_s_at) / Fold change /veh PLEKHG5 (11737974_s_at) / RFU LRRC4B (11730491_at) / Fold change /veh LRRC4B (11730491_at) / RFU GIMAP4 (11747438_a_at) / Fold change /veh GIMAP4 (11747438_a_at) / RFU KRT8 (11758183_x_at) / Fold change /veh KRT8 (11758183_x_at) / RFU CNN1 (11734310_a_at) / Fold change /veh CNN1 (11734310_a_at) / RFU VPS37D (11726825_at) / Fold change /veh VPS37D (11726825_at) / RFU C10orf10 (11716522_x_at) / Fold change /veh C10orf10 (11716522_x_at) / RFU KIR2DL2 /// KIR2DL4 /// KIR2DL5A /// KIR2DL5B /// KIR2DS1 /// KIR2DS2 /// KIR2DS3 /// KIR2DS4 /// KIR3DL3 /// KIR3DL3 /// KIR3DS1 (11738374_at) / Fold change /veh KIR2DL2 /// KIR2DL4 /// KIR2DL5A /// KIR2DL5B /// KIR2DS1 /// KIR2DS2 /// KIR2DS3 /// KIR2DS4 /// KIR3DL3 /// KIR3DL3 /// KIR3DS1 (11738374_at) / RFU C1QL1 (11718748_at) / Fold change /veh C1QL1 (11718748_at) / RFU TMPRSS4 (11747572_a_at) / Fold change /veh TMPRSS4 (11747572_a_at) / RFU HAMP (11756126_x_at) / Fold change /veh HAMP (11756126_x_at) / RFU RNFT2 (11725882_a_at) / Fold change /veh RNFT2 (11725882_a_at) / RFU NR4A2 (11747474_a_at) / Fold change /veh NR4A2 (11747474_a_at) / RFU ABCC12 (11746883_a_at) / Fold change /veh ABCC12 (11746883_a_at) / RFU TMEM136 (11760407_x_at) / Fold change /veh TMEM136 (11760407_x_at) / RFU CLDN22 /// WWC2 (11732394_at) / Fold change /veh CLDN22 /// WWC2 (11732394_at) / RFU HLA-DPB1 (11760878_x_at) / Fold change /veh HLA-DPB1 (11760878_x_at) / RFU SPINT1 (11716480_a_at) / Fold change /veh SPINT1 (11716480_a_at) / RFU GAP43 (11754022_s_at) / Fold change /veh GAP43 (11754022_s_at) / RFU A4GNT (11735810_at) / Fold change /veh A4GNT (11735810_at) / RFU PRB3 (11715151_x_at) / Fold change /veh PRB3 (11715151_x_at) / RFU TUBB4B (11761932_at) / Fold change /veh TUBB4B (11761932_at) / RFU CAPN14 (11732068_a_at) / Fold change /veh CAPN14 (11732068_a_at) / RFU TMCC2 (11721928_a_at) / Fold change /veh TMCC2 (11721928_a_at) / RFU IRGQ (11745062_a_at) / Fold change /veh IRGQ (11745062_a_at) / RFU FAM174B (11720279_a_at) / Fold change /veh FAM174B (11720279_a_at) / RFU TMPRSS4 (11748680_a_at) / Fold change /veh TMPRSS4 (11748680_a_at) / RFU FAM212B (11763350_a_at) / Fold change /veh FAM212B (11763350_a_at) / RFU PLEKHG5 (11743358_a_at) / Fold change /veh PLEKHG5 (11743358_a_at) / RFU ZSCAN30 (11745921_a_at) / Fold change /veh ZSCAN30 (11745921_a_at) / RFU CMKLR1 (11741424_a_at) / Fold change /veh CMKLR1 (11741424_a_at) / RFU LOC101060620 /// MAPK8IP1 (11723275_at) / Fold change /veh LOC101060620 /// MAPK8IP1 (11723275_at) / RFU SPTSSB (11747773_x_at) / Fold change /veh SPTSSB (11747773_x_at) / RFU PRSS12 (11739890_at) / Fold change /veh PRSS12 (11739890_at) / RFU BIN1 (11741810_x_at) / Fold change /veh BIN1 (11741810_x_at) / RFU WNT11 (11732464_a_at) / Fold change /veh WNT11 (11732464_a_at) / RFU C10orf10 (11716521_a_at) / Fold change /veh C10orf10 (11716521_a_at) / RFU C5orf56 (11738089_at) / Fold change /veh C5orf56 (11738089_at) / RFU CYB561 (11721691_x_at) / Fold change /veh CYB561 (11721691_x_at) / RFU ANKRD19P (11752326_a_at) / Fold change /veh ANKRD19P (11752326_a_at) / RFU OR2T12 /// OR2T33 /// OR2T8 (11738714_s_at) / Fold change /veh OR2T12 /// OR2T33 /// OR2T8 (11738714_s_at) / RFU VCAN (11748164_a_at) / Fold change /veh VCAN (11748164_a_at) / RFU JSRP1 (11732532_at) / Fold change /veh JSRP1 (11732532_at) / RFU KRTAP10-11 (11738290_x_at) / Fold change /veh KRTAP10-11 (11738290_x_at) / RFU MYO3A (11730013_a_at) / Fold change /veh MYO3A (11730013_a_at) / RFU EBF3 (11725865_a_at) / Fold change /veh EBF3 (11725865_a_at) / RFU CAMK2N1 (11719241_x_at) / Fold change /veh CAMK2N1 (11719241_x_at) / RFU C5orf56 (11738088_a_at) / Fold change /veh C5orf56 (11738088_a_at) / RFU OLFML3 (11715873_a_at) / Fold change /veh OLFML3 (11715873_a_at) / RFU LOC100653217 /// NTM (11731650_a_at) / Fold change /veh LOC100653217 /// NTM (11731650_a_at) / RFU MAPK11 (11762145_a_at) / Fold change /veh MAPK11 (11762145_a_at) / RFU FIZ1 (11724087_x_at) / Fold change /veh FIZ1 (11724087_x_at) / RFU OASL (11726364_x_at) / Fold change /veh OASL (11726364_x_at) / RFU SOX15 (11748057_x_at) / Fold change /veh SOX15 (11748057_x_at) / RFU CD79A (11719716_a_at) / Fold change /veh CD79A (11719716_a_at) / RFU HIST1H1D (11736915_at) / Fold change /veh HIST1H1D (11736915_at) / RFU CASKIN2 (11723855_a_at) / Fold change /veh CASKIN2 (11723855_a_at) / RFU LOC730098 (11760151_x_at) / Fold change /veh LOC730098 (11760151_x_at) / RFU OR4N2 (11742367_at) / Fold change /veh OR4N2 (11742367_at) / RFU PRRT2 (11749266_a_at) / Fold change /veh PRRT2 (11749266_a_at) / RFU SNX32 (11753110_a_at) / Fold change /veh SNX32 (11753110_a_at) / RFU CDHR5 (11726645_a_at) / Fold change /veh CDHR5 (11726645_a_at) / RFU RCAN1 (11760418_a_at) / Fold change /veh RCAN1 (11760418_a_at) / RFU FAM167A (11723789_a_at) / Fold change /veh FAM167A (11723789_a_at) / RFU FAM26E (11764081_at) / Fold change /veh FAM26E (11764081_at) / RFU ISYNA1 (11749810_s_at) / Fold change /veh ISYNA1 (11749810_s_at) / RFU ACY1 (11761880_at) / Fold change /veh ACY1 (11761880_at) / RFU 11764098_at / Fold change /veh 11764098_at / RFU SAMD14 (11745864_x_at) / Fold change /veh SAMD14 (11745864_x_at) / RFU NPB (11741838_a_at) / Fold change /veh NPB (11741838_a_at) / RFU TMPRSS6 (11731388_a_at) / Fold change /veh TMPRSS6 (11731388_a_at) / RFU KRTAP10-2 (11738614_at) / Fold change /veh KRTAP10-2 (11738614_at) / RFU ARHGAP8 /// PRR5-ARHGAP8 (11727945_x_at) / Fold change /veh ARHGAP8 /// PRR5-ARHGAP8 (11727945_x_at) / RFU KRTAP5-7 /// NADSYN1 (11734609_at) / Fold change /veh KRTAP5-7 /// NADSYN1 (11734609_at) / RFU RASL12 (11751679_a_at) / Fold change /veh RASL12 (11751679_a_at) / RFU CDKN2B (11736163_a_at) / Fold change /veh CDKN2B (11736163_a_at) / RFU PRF1 (11729649_at) / Fold change /veh PRF1 (11729649_at) / RFU, ZNF638 /// ZNF638-IT1 / Fold change vs veh, ZNF638 /// ZNF638-IT1 / RFU, PANK3 / Fold change vs veh, PANK3 / RFU, SH3YL1 / Fold change vs veh, SH3YL1 / RFU, ZEB2 / Fold change vs veh, ZEB2 / RFU, NRIP1 / Fold change vs veh, NRIP1 / RFU, PTTG1IP / Fold change vs veh, PTTG1IP / RFU, CAPN2 / Fold change vs veh, CAPN2 / RFU, MED14 / Fold change vs veh, MED14 / RFU, SNORA58 / Fold change vs veh, SNORA58 / RFU, C1orf63 / Fold change vs veh, C1orf63 / RFU, LRRFIP1 / Fold change vs veh, LRRFIP1 / RFU, NDUFAF7 / Fold change vs veh, NDUFAF7 / RFU, SLC12A2 / Fold change vs veh, SLC12A2 / RFU, IBTK / Fold change vs veh, IBTK / RFU, ESF1 / Fold change vs veh, ESF1 / Fold change vs veh, TMEM50B / RFU, TAOK1 / Fold change vs veh, TAOK1 / RFU, ACBD3 / Fold change vs veh, ACBD3 / RFU, TMA16 / Fold change vs veh, TMA16 / RFU, RWDD3 / Fold change vs veh, RWDD3 / RFU, BCAT1 / Fold change vs veh, BCAT1 / RFU, EDEM3 / Fold change vs veh, EDEM3 / RFU, TMEM33 / Fold change vs veh, TMEM33 / RFU, WDR75 / Fold change vs veh, WDR75 / RFU, AHCTF1 / Fold change vs veh, AHCTF1 / RFU, TFRC / Fold change vs veh, TFRC / RFU, ZDHHC17 / Fold change vs veh, ZDHHC17 / RFU, NOM1 / Fold change vs veh, NOM1 / RFU, ARL8B / Fold change vs veh, ARL8B / RFU, ZBTB11 / Fold change vs veh, ZBTB11 / RFU, TAMM41 / Fold change vs veh, TAMM41 / RFU, KIAA1704 /// LOC100996395 / Fold change vs veh, KIAA1704 /// LOC100996395 / RFU, ING1 / Fold change vs veh, ING1 / RFU, TRMT61B / Fold change vs veh, TRMT61B / RFU, FUBP3 / Fold change vs veh, FUBP3 / RFU, TP53 / Fold change vs veh, TP53 / RFU, TNKS2 / Fold change vs veh, TNKS2 / RFU, ZFP14 / Fold change vs veh, ZFP14 / RFU, ACTR2 / Fold change vs veh, ACTR2 / RFU, PPP3R1 / Fold change vs veh, PPP3R1 / RFU, PIK3R1 / Fold change vs veh, PIK3R1 / RFU, HNRNPA1 / Fold change vs veh, HNRNPA1 / RFU, RNF170 / Fold change vs veh, RNF170 / RFU, ZNF28 / Fold change vs veh, ZNF28 / RFU, RNGTT / Fold change vs veh, RNGTT / RFU, OGT / Fold change vs veh, OGT / RFU, BRD1 / Fold change vs veh, BRD1 / RFU, MARS / Fold change vs veh, MARS / RFU, ZNF655 / Fold change vs veh, ZNF655 / RFU, FAHD1 / Fold change vs veh, FAHD1 / RFU, BDP1 / Fold change vs veh, BDP1 / RFU, LRRCC1 / Fold change vs veh, LRRCC1 / RFU, ARID1A / Fold change vs veh, ARID1A / RFU, ZNF146 / Fold change vs veh, ZNF146 / RFU, ZNF330 / Fold change vs veh, ZNF330 / RFU, GPN3 / Fold change vs veh, GPN3 / RFU, C9orf123 / Fold change vs veh, C9orf123 / RFU, N4BP2L2 / Fold change vs veh, N4BP2L2 / RFU, ARFIP1 / Fold change vs veh, ARFIP1 / RFU, FAM179B / Fold change vs veh, FAM179B / RFU, BCL10 / Fold change vs veh, BCL10 / RFU, UHRF1BP1L / Fold change vs veh, UHRF1BP1L / RFU, BET1 / Fold change vs veh, BET1 / RFU, CNOT2 / Fold change vs veh, CNOT2 / RFU, ZNF268 / Fold change vs veh, ZNF268 / Fold change vs veh, ZNF507 / RFU, DGCR2 / Fold change vs veh, DGCR2 / RFU, WDSUB1 / Fold change vs veh, WDSUB1 / Fold change vs veh, HSP90B1 /// MIR3652 / RFU, ADSS / Fold change vs veh, ADSS / RFU, GK / Fold change vs veh, GK / RFU, ZNF148 / Fold change vs veh, ZNF148 / RFU, TAF9 / Fold change vs veh, TAF9 / RFU, SLC1A5 / Fold change vs veh, SLC1A5 / RFU, SLMO2 / Fold change vs veh, SLMO2 / RFU, ABCC4 / Fold change vs veh, ABCC4 / RFU, LOC101060439 /// RAP1B / Fold change vs veh, LOC101060439 /// RAP1B / RFU, RFX7 / Fold change vs veh, RFX7 / RFU, GTPBP10 / Fold change vs veh, GTPBP10 / RFU, CNEP1R1 / Fold change vs veh, CNEP1R1 / RFU, BIVM-ERCC5 /// ERCC5 / Fold change vs veh, BIVM-ERCC5 /// ERCC5 / RFU, ILF3 / Fold change vs veh, ILF3 / RFU 11762660_at / Fold change /veh 11762660_at / RFU VCAN (11757783_s_at) / Fold change /veh VCAN (11757783_s_at) / RFU DDX43 (11728927_at) / Fold change /veh DDX43 (11728927_at) / RFU KRT8 (11758188_x_at) / Fold change /veh KRT8 (11758188_x_at) / RFU NKD1 (11759106_at) / Fold change /veh NKD1 (11759106_at) / RFU SRD5A1 (11742802_a_at) / Fold change /veh SRD5A1 (11742802_a_at) / RFU TPSAB1 /// TPSB2 (11721975_s_at) / Fold change /veh TPSAB1 /// TPSB2 (11721975_s_at) / RFU GSTM3 (11746129_a_at) / Fold change /veh GSTM3 (11746129_a_at) / RFU IL23R (11737362_x_at) / Fold change /veh IL23R (11737362_x_at) / RFU TMEM51 (11727254_a_at) / Fold change /veh TMEM51 (11727254_a_at) / RFU PIWIL2 (11732686_x_at) / Fold change /veh PIWIL2 (11732686_x_at) / RFU ORM1 (11744905_x_at) / Fold change /veh ORM1 (11744905_x_at) / RFU CCDC152 (11743942_at) / Fold change /veh CCDC152 (11743942_at) / RFU ECM1 (11717891_a_at) / Fold change /veh ECM1 (11717891_a_at) / RFU IL23R (11748794_a_at) / Fold change /veh IL23R (11748794_a_at) / RFU TNFAIP8L3 (11732012_x_at) / Fold change /veh TNFAIP8L3 (11732012_x_at) / RFU MBOAT4 (11741988_at) / Fold change /veh MBOAT4 (11741988_at) / RFU 11764193_at / Fold change /veh 11764193_at / RFU TMEM53 (11763286_at) / Fold change /veh TMEM53 (11763286_at) / RFU MAGEB2 (11727129_at) / Fold change /veh MAGEB2 (11727129_at) / RFU TMEM200A (11744735_a_at) / Fold change /veh TMEM200A (11744735_a_at) / RFU CCDC152 (11751479_a_at) / Fold change /veh CCDC152 (11751479_a_at) / RFU FAM211A (11726209_a_at) / Fold change /veh FAM211A (11726209_a_at) / RFU RGS16 (11746705_a_at) / Fold change /veh RGS16 (11746705_a_at) / RFU VCAN (11755009_s_at) / Fold change /veh VCAN (11755009_s_at) / RFU RHOB (11743442_s_at) / Fold change /veh RHOB (11743442_s_at) / RFU RGS16 (11720943_a_at) / Fold change /veh RGS16 (11720943_a_at) / RFU RGS16 (11720944_at) / Fold change /veh RGS16 (11720944_at) / RFU, VPS4B / Fold change vs veh, VPS4B / RFU, CREB1 / Fold change vs veh, CREB1 / RFU, DNAJC13 / Fold change vs veh, DNAJC13 / RFU, GNAQ / Fold change vs veh, GNAQ / RFU, CDK5R1 / Fold change vs veh, CDK5R1 / RFU, ZRANB3 / Fold change vs veh, ZRANB3 / RFU, CUL4A / Fold change vs veh, CUL4A / RFU, CCNY / Fold change vs veh, CCNY / RFU, UFL1 / Fold change vs veh, UFL1 / RFU, COG3 / Fold change vs veh, COG3 / RFU, DIAPH2 / Fold change vs veh, DIAPH2 / RFU, SKA2 / Fold change vs veh, SKA2 / RFU, AFF3 / Fold change vs veh, AFF3 / RFU, LMF1 / Fold change vs veh, LMF1 / RFU, IPO11 / Fold change vs veh, IPO11 / RFU, DFFB / Fold change vs veh, DFFB / RFU, FOXP1 / Fold change vs veh, FOXP1 / RFU, CARD8 / Fold change vs veh, CARD8 / RFU, STRN3 / Fold change vs veh, STRN3 / RFU, ADK / Fold change vs veh, ADK / RFU, RASSF2 / Fold change vs veh, RASSF2 / RFU, WIPF1 / Fold change vs veh, WIPF1 / RFU, LARP1B / Fold change vs veh, LARP1B / RFU, RASA1 / Fold change vs veh, RASA1 / RFU, RB1 / Fold change vs veh, RB1 / RFU, PPFIA1 / Fold change vs veh, PPFIA1 / RFU, MAT2A / Fold change vs veh, MAT2A / RFU, CCT5 / Fold change vs veh, CCT5 / RFU, WDR92 / Fold change vs veh, WDR92 / RFU, CUX1 / Fold change vs veh, CUX1 / RFU, TTC7A / Fold change vs veh, TTC7A / RFU, TMEM135 / Fold change vs veh, TMEM135 / RFU, DEPTOR / Fold change vs veh, DEPTOR / RFU, CPM / Fold change vs veh, CPM / RFU, DNAJB6 / Fold change vs veh, DNAJB6 / RFU, CACNA2D3 / Fold change vs veh, CACNA2D3 / RFU, DTX4 / Fold change vs veh, DTX4 / RFU, TFCP2 / Fold change vs veh, TFCP2 / RFU, GMCL1 /// GMCL1P1 / Fold change vs veh, GMCL1 /// GMCL1P1 / RFU, AEBP2 / Fold change vs veh, AEBP2 / RFU, SNHG1 /// SNORD22 /// SNORD25 /// SNORD26 /// SNORD27 /// SNORD28 /// SNORD29 /// SNORD31 / Fold change vs veh, SNHG1 /// SNORD22 /// SNORD25 /// SNORD26 /// SNORD27 /// SNORD28 /// SNORD29 /// SNORD31 / Fold change (Aza/veh), C12orf56 (ProbeSet 11735607_a_at) / Fold change (ACY-1035/veh), C12orf56 (ProbeSet 11735607_a_at) / Fold change (Aza/veh), FGFR1OP (ProbeSet 11751329_s_at) / Fold change (ACY-1035/veh), FGFR1OP (ProbeSet 11751329_s_at) / Fold change (Aza/veh), VPS36 (ProbeSet 11739960_a_at) / Fold change (ACY-1035/veh), VPS36 (ProbeSet 11739960_a_at) / RFU SYPL1 (11715823_x_at) / Fold change /veh SYPL1 (11715823_x_at) / RFU IGFBP7 (11715501_s_at) / Fold change /veh IGFBP7 (11715501_s_at) / RFU REEP3 (11722064_at) / Fold change /veh REEP3 (11722064_at) / RFU IGLL1 (11728026_x_at) / Fold change /veh IGLL1 (11728026_x_at): dose or concentration left out as unconfirmed
Conditions: MV-4-11 cells, 48 hours

SMILES: Nc1ccc(-c2cccs2)cc1NC(=O)c1ccc2c(c1)cc(C1CC1)n2CCN1CCOCC1 [ACY-1035]
- Fold change /veh ORM1 (11744905_x_at): 1.11
